Data published in paper PMC8742467, “Therapeutical interference with the epigenetic landscape of germ cell tumors: a comparative drug study and new mechanistical insights” (Clinical Epigenetics, 2022).
Where two headings read alike, the source gives them in different places.

Columns and labels:
[1] = test system: TCam-2 (SE); test: XTT cell viability assay, TCam-2; format: cell-based; details: Homo sapiens, read-out: EC50 colour/symbol code, SE TCam-2
Protocol: (§1) The […] (XTT) assays were performed as described previously. In summary, for GCT and fibroblast cell lines 5 × 10^3 cells (3 × 10^3 for UC, PCa and RCC cell lines) per 96-well were seeded and different drug concentrations (see Additional file 2: Fig. S2, Additional file 3: Fig. S3) or corresponding solvents were added to the cells the following day. For drug details see Additional file 12: Table S2 C. Each condition was analyzed in four technical replicates and EC50 values were calculated by GraphPad Prism v8.

[2] = test system: JAR (CC); test: XTT cell viability assay, JAR; format: cell-based; details: Homo sapiens, after 48 h, n = 4, read-out: EC50 colour/symbol code, CC JAR
Protocol: as §1

[3] = test system: GCT cell lines; test: XTT cell viability assay, GCT cell lines (pre-screen / summary); format: cell-based, Human; details: first pre-screen, XTT; for EC50: read-out: EC50; for EC50 / effective concentration in words: SE and EC proxies TCam-2 and 2102EP
Protocol: as §1

[4] = test system: 2102EP (EC); test: XTT cell viability assay, 2102EP; format: cell-based; details: Homo sapiens, read-out: EC50 colour/symbol code, EC 2102EP
Protocol: as §1

[5] = test system: histone modifications in 2102EP cells; test: Mass spectrometry analysis of histone modifications (Mod Spec); format: cell-based, Human
Protocol: 2102EP cells were treated with the EC50 concentrations for Quisinostat, JIB-04, Chaetocin, MZ-1, LP99, PRT4165, GSK343 and DMSO as solvent control. The cells were harvested via trypsinization after 16 h. The mass spectrometric analysis of histone modifications was outsourced to the Mod Spec service by Active Motif (Carlsbad, CA, USA). Histone extraction and mass spectrometric analysis was performed as described previously. Raw data were transformed into z-scores as the input. The heatmap was generated in R using ‘pheatmap’ with default settings and provided by Active Motif.

[6] = test system: DNA methylation (5mC, 5hmC) in 2102EP cells; test: DNA slot blot (5mC, 5hmC); format: cell-based, Human; details: 24 h
Protocol: Purity of DNA was verified using NanoDrop 260/280 ratio and agarose gel electrophoresis. DNA was diluted in H2O to 200 ng, 100 ng and 50 ng in 200 µl per slot. Slot-Blotter device (Carl Roth GmbH + Co KG, Karlsruhe, Germany) was assembled as according to the manual. DNA was blotted onto a positively charged nylon membrane (Carl Roth GmbH + Co KG, Karlsruhe, Germany) using vacuum application. Three identical membranes were prepared. The membranes were air-dried for 15—20 min and UV-crosslinked (20 s (s), 1200 mJ/cm^2). One membrane was stained with methylene blue (0.02% methylene blue (Merck Millipore, Darmstadt, Germany) in 0.3 M sodium acetate (pH 5.2)) to validate DNA loading across the samples. The remaining two membranes were blocked in 5% milk powder in PBST for 1 h at RT. Membranes were incubated with 5mC or 5hmC antibody overnight at 4 °C. After washing, membranes were incubated with secondary antibody for 2 h at RT. Signals were detected using the ChemiDoc Imaging Systems (Bio-Rad Laboratories, Feldkirchen, Germany).

[7] = test system: phosphorylated kinase targets in 2102EP cells; test: Proteome Profiler Human Phospho-Kinase Array; format: cell-based; details: 16 h
Protocol: For the detection of phosphorylated kinase targets, the Proteome Profiler Human Phospho-Kinase Array Kit (R&D Systems, Abingdon, UK) was used according to the manufacturer’s instructions. The ChemiDoc Imaging System (Bio-Rad Laboratories, Feldkirchen, Germany) was used for detection. 2102EP cells were harvested after 16 h of treatment with the epi-drugs. Pixel density was analyzed using Fiji ImageJ 1.53c.

[8] = test system: transcriptome of 2102EP cells; test: RNA sequencing; format: cell-based, Human; details: 16 h
Protocol: Transcriptome analysis has been performed as previously described at the core facility ‘Genomics & Transcriptomics’ (Prof. Dr. Karl Köhrer, Biomedical Research Center, Heinrich Heine University, Düsseldorf, Germany) and has been publicly shared via GEO (https://www.ncbi.nlm.nih.gov/geo/, GSE189472). RNA samples were quantified and measured as previously described. Statistical analyses were performed using the ‘Differential Expression in two groups’ tool (version 1.02) (Qiagen) and the resulting p values were corrected for multiple testing by false discovery rate (FDR). Accompanying PCA and heatmap were generated using Qlucore Omics Explorer 3.7 (Qlucore AB, Lund, Sweden). Values of solvent controls wereaveraged from the studies GSE189472, GSE190792 and GSE190022 [95].

[9] = 2102EP cells, Mod Spec raw data
[10] = 2102EP, EC50, 16 h, vs solvent control
[11] = sorted data log2>±1.5, FDR p<0.05

## O=C(O)C1=CC(=C(c2ccc(O)c(C(=O)O)c2)c2ccc(O)c(C(=O)O)c2)C=CC1=O [Aurintricarboxylic Acid]
[1]; after 48 h, XTT, n = 4
  EC50: > 50 µM
[2]
  EC50: > 50 µM
[3]; Homo sapiens, GCT
  EC50: > 50 µM
[4]; after 48 h, XTT, n = 4
  EC50: > 50 µM

## COc1cc(-c2cn(C)c(=O)c3cnccc23)c(OC)cc1CN(C)C [BI-9564]
[1]; after 48 h, XTT, n = 4
  EC50: > 50 µM
[2]
  EC50: > 50 µM
[3]; Homo sapiens, GCT
  EC50: > 50 µM
[4]; after 48 h, XTT, n = 4
  EC50: > 50 µM

## NNCCc1ccc(NC(=O)CCCc2ccccc2)cc1 [Bizine]
[3]
  EC50: > 50 µM

## CN(C)NC(=O)CCC(=O)O [Daminozide]
[1]; 48 h
  EC50: > 50 µM
[2]
  EC50: > 50 µM
[4]; 48 h
  EC50: > 50 µM

## O=C(O)c1ccc(CN2CCC(CN[C@@H]3C[C@H]3c3ccccc3)CC2)cc1 [GSK2879552]
[1]; after 48 h, XTT, n = 4
  EC50: > 50 µM
[2]
  EC50: > 50 µM
[3]; Homo sapiens, GCT
  EC50: > 50 µM
[4]; after 48 h, XTT, n = 4
  EC50: > 50 µM

## Clc1ccc(N/N=C(\c2ccccc2)c2ccccn2)nc1 [JIB-04]
[5]; [9]
  H1.4: K25AC, % of peptide pool: 0.003915%
  H1.4: K25ME1, % of peptide pool: 2.18%
  H1.4: K25ME2, % of peptide pool: 0.06041%
  H1.4: K25ME3, % of peptide pool: 0.002903%
  H1.4: K25UN, % of peptide pool: 97.7528%
  H2A1: K13AC, % of peptide pool: 0.01774%
  H2A1: K13UN, % of peptide pool: 99.9823%
  H2A1: K15AC, % of peptide pool: 0.006947%
  H2A1: K15UB, % of peptide pool: 0%
  H2A1: K15UN, % of peptide pool: 99.9931%
  H2A3: K13AC, % of peptide pool: 0.0449%
  H2A3: K13UN, % of peptide pool: 99.9551%
  H2A3: K15AC, % of peptide pool: 0.04676%
  H2A3: K15UB, % of peptide pool: 0%
  H2A3: K15UN, % of peptide pool: 99.9532%
  H2A: K5AC, % of peptide pool: 17.3435%
  H2A: K5UN, % of peptide pool: 82.6565%
  H2A: K9AC, % of peptide pool: 2.608%
  H2A: K9UN, % of peptide pool: 97.3916%
  H2A: K36AC, % of peptide pool: 0.02653%
  H2A: K36UN, % of peptide pool: 99.9735%
  H3: K9AC, % of peptide pool: 0.7026%
  H3: K9ME1, % of peptide pool: 34.4011%
  H3: K9ME2, % of peptide pool: 29.5437%
  H3: K9ME3, % of peptide pool: 3.1432%
  H3: K9UN, % of peptide pool: 32.2094%
  H3: K14AC, % of peptide pool: 29.7131%
  H3: K14UN, % of peptide pool: 70.2869%
  H3: K18AC, % of peptide pool: 13.9058%
  H3: K18ME1, % of peptide pool: 0.1878%
  H3: K18UN, % of peptide pool: 85.9064%
  H3: K23AC, % of peptide pool: 21.6519%
  H3: K23ME1, % of peptide pool: 0.01047%
  H3: K23UN, % of peptide pool: 78.3377%
  H3: K56AC, % of peptide pool: 0.09324%
  H3: K56ME1, % of peptide pool: 0.04566%
  H3: K56UN, % of peptide pool: 99.8611%
  H3: K64AC, % of peptide pool: 0.01353%
  H3: K64UN, % of peptide pool: 99.9865%
  H3: K79AC, % of peptide pool: 0.03684%
  H3: K79ME1, % of peptide pool: 12.2939%
  H3: K79ME2, % of peptide pool: 5.57%
  H3: K79ME3, % of peptide pool: 6.201%
  H3: K79UN, % of peptide pool: 75.8979%
  H3: K122AC, % of peptide pool: 0.03356%
  H3: K122UN, % of peptide pool: 99.9664%
  H3: Q19ME1, % of peptide pool: 0.003167%
  H3: Q19UN, % of peptide pool: 99.9968%
  H3: Q55ME1, % of peptide pool: 0.032%
  H3: Q55UN, % of peptide pool: 99.968%
  H3: R42ME2, % of peptide pool: 1.896%
  H3: R42UN, % of peptide pool: 98.1041%
  H3: R49ME2, % of peptide pool: 4.211%
  H3: R49UN, % of peptide pool: 95.789%
  H3R2UN: K4AC, % of peptide pool: 0.05876%
  H3R2UN: K4ME1, % of peptide pool: 17.7716%
  H3R2UN: K4ME2, % of peptide pool: 0.2231%
  H3R2UN: K4ME3, % of peptide pool: 0.06844%
  H3R2UN: K4UN, % of peptide pool: 81.8781%
  H3R2UN: Q5ME1, % of peptide pool: 0.02831%
  H3R2UN: Q5UN, % of peptide pool: 99.9717%
  H3.1: K27AC, % of peptide pool: 2.414%
  H3.1: K27ME1, % of peptide pool: 49.3304%
  H3.1: K27ME2, % of peptide pool: 16.204%
  H3.1: K27ME3, % of peptide pool: 1.814%
  H3.1: K27UN, % of peptide pool: 30.2382%
  H3.1: K36AC, % of peptide pool: 0.1106%
  H3.1: K36ME1, % of peptide pool: 13.2702%
  H3.1: K36ME2, % of peptide pool: 51.7553%
  H3.1: K36ME3, % of peptide pool: 20.9267%
  H3.1: K36UN, % of peptide pool: 13.9372%
  H3.3: K27AC, % of peptide pool: 4.408%
  H3.3: K27M, % of peptide pool: 0%
  H3.3: K27ME1, % of peptide pool: 52.2182%
  H3.3: K27ME2, % of peptide pool: 11.913%
  H3.3: K27ME3, % of peptide pool: 2.973%
  H3.3: K27UN, % of peptide pool: 28.488%
  H3.3: K36AC, % of peptide pool: 1.2917%
  H3.3: K36ME1, % of peptide pool: 11.4367%
  H3.3: K36ME2, % of peptide pool: 56.7436%
  H3.3: K36ME3, % of peptide pool: 20.5666%
  H3.3: K36UN, % of peptide pool: 9.961%
  H4: K5AC, % of peptide pool: 7.467%
  H4: K5UN, % of peptide pool: 92.5334%
  H4: K8AC, % of peptide pool: 11.3876%
  H4: K8UN, % of peptide pool: 88.6124%
[5]; 2102EP cells, Mod Spec raw data, histone H4 K12 acetylated
  H4: K12AC, % of peptide pool: 6.714 % of peptide pool
[5]; 2102EP cells, Mod Spec raw data, histone H4 K12 unmodified
  H4: K12UN, % of peptide pool: 93.2862 % of peptide pool
[5]; 2102EP cells, Mod Spec raw data, histone H4 K16 acetylated
  H4: K16AC, % of peptide pool: 46.6822 % of peptide pool
[5]; 2102EP cells, Mod Spec raw data, histone H4 K16 unmodified
  H4: K16UN, % of peptide pool: 53.3178 % of peptide pool
[5]; 2102EP cells, Mod Spec raw data, histone H4 K20 acetylated
  H4: K20AC, % of peptide pool: 14.5151 % of peptide pool
[5]; 2102EP cells, Mod Spec raw data, histone H4 K20 dimethylated
  H4: K20ME2, % of peptide pool: 53.9426 % of peptide pool
[5]; 2102EP cells, Mod Spec raw data, histone H4 K20 monomethylated
  H4: K20ME1, % of peptide pool: 5.183 % of peptide pool
[5]; 2102EP cells, Mod Spec raw data, histone H4 K20 trimethylated
  H4: K20ME3, % of peptide pool: 2.177 % of peptide pool
[5]; 2102EP cells, Mod Spec raw data, histone H4 K20 unmodified
  H4: K20UN, % of peptide pool: 24.182 % of peptide pool
[5]; [10]
  change of histone modifications of the expected mode of action (Mod Spec): slightly increased H3K4me2/me3 marks
  off-target changes of histone modifications (Mod Spec): decrease in H4K16ac and H4K20ac
[3]
  EC50 / effective concentration in words: nanomolar range
[6]
  reduction in 5mC levels: 27%
[7]
  CREB, STAT3 and STAT5 phosphorylation and total levels of β-Catenin and HSP60: decreased
  ERK1/2 phosphorylation: decreased
  p53 S15 phosphorylation: increased
[8]; [11]
  DDIT4 Log2 fold change vs. DMSO: 1.60
  EIF3CL Log2 fold change vs. DMSO: -1.72
  SLC16A3 Log2 fold change vs. DMSO: 1.76
[8]; unsorted data
  A1BG Log2 fold change vs. DMSO: -0.0173
  A1CF Log2 fold change vs. DMSO: -2.00
  A2M Log2 fold change vs. DMSO: 0.04

## NC(=O)c1cccnc1 [Nicotinamide]
[1]; after 48 h, XTT, n = 4
  EC50: > 50 µM
[2]
  EC50: > 50 µM
[3]; Homo sapiens, GCT
  EC50: > 50 µM
[4]; after 48 h, XTT, n = 4
  EC50: > 50 µM

## NC(=O)C1CCCc2c1[nH]c1ccc(Cl)cc21 (stereo not shown) [Selisistat]
[3]
  EC50: > 50 µM

## COc1cc(-c2cn(C)c(=O)c3cnccc23)cc(OC)c1CN1CCN(CCCCCOc2cc(-c3scnc3C)ccc2CNC(=O)[C@@H]2C[C@@H](O)CN2C(=O)[C@@H](NC(=O)C2(F)CC2)C(C)(C)C)CC1 [VZ185]
[1]; after 48 h, XTT, n = 4
  EC50: 1 to 50 µM
[2]
  EC50: 1 to 50 µM
[3]
  EC50 / effective concentration in words: low micromolar concentrations
[4]; after 48 h, XTT, n = 4
  EC50: 1 to 50 µM
